These results are taken from patent US8309068B2, “Isolated polypeptides and methods of improving muscle strength” (Myostin Therapeutics Pty Ltd., priority 2006, dated 2012).

Where no end group is shown, it is not given here.

Assay [1] relates to myostatin. The assay can be described thus: Myoblast chemotaxis assay, recovery of myostatin chemo-inhibition by antagonists. The assay is classed as cell-based. On the procedure: Primary myoblasts were cultured from the hind limb muscle of young (4 to 6 week old) or old (24 month old) mice, according to the published protocols (Allen et al., 1997; Partridge, 1997). Briefly, muscles were minced, and digested in 0.2% collagenase type 1A for 90 min. Cultures were enriched for myoblasts by pre-plating on uncoated plates for 3 hours. Myoblast cultures were maintained in growth media (GM) supplemented with 20% fetal calf serum (FCS), 10% HS and 1% CEE on 10% Matrigel coated plates, at 37° C./5% CO2. The extent of culture purity was assessed by flow cytometry analysis of MyoD expression after 48 hours in culture. Cells were harvested using trypsin, suspended at a concentration of 10^6 cells/200 μl and fixed overnight in 5 ml 70% ethanol at −20° C. Staining was performed for 30 min at room temperature using rabbit polyclonal anti-MyoD, 1:200 (Santa Cruz), followed by Alexa fluor 488 anti-rabbit conjugate, 1:500 (Molecular Probes). Analysis was carried out in duplicate with 10^4 cell events collected in each assay. Debris was excluded by gating on forward and side scatter profiles. Cells were analyzed by FACScan (Becton Dickinson). Macrophages were isolated by a peritoneal lavage technique and/or derived from bone marrow Zymosan-activated mouse serum (ZAMS) was prepared according to the published protocol (Colditz and Movat, 1984).
For the chemotaxis assay of myoblasts, a first assay was carried out on myoblasts from 2 year old mice as follows. DMEM containing 2% horse serum (HS), 5% chicken embryo extract (CEE) plus dialysis buffer was used as positive control. […] Plain DMEM was used as negative control. On a 24-well plate, the bottom wells were filled with test or control media. Seventy-five thousand cells were added to the top wells containing polyethylene terephthalate (PET) 0.8 μm membranes coated with 1% Matrigel. The plate was incubated for 7 h at 37° C., 5% CO2. […] The membrane was then fixed, stained in Gill's hematoxylin and wet mounted on slides. Migrated cells were counted on four representative fields per membrane and the average number plotted. The results are shown in FIG. 6 (myoblast migration from old mice) and FIG. 7 (myoblast migration from young mice).

The test system of assay [2] is primary myoblasts. The assay can be described thus: Migration of primary myoblasts isolated from mice treated in vivo. The note with it: 6 μg/g BW SC three times a week for six weeks; three chemo-attractant media; vs saline. An excerpt:
In a second myoblast migration assay, primary myoblasts isolated form hind limb of saline treated (control) and myostatin antagonist 300 treated mice (as described in example 4 below). Three chemo-attractant media were used: DMEM containing 2% horse serum (HS) and 5% chicken embryo extract (CEE) (optimal chemo-attractant); DMEM containing only 5% CEE or DMEM containing only 2% HS (both suboptimal chemo-attractants). Plain DMEM was used as negative control. On a 24-well plate, the bottom wells were filled with test or control media. Seventy-five thousand cells were added to the top wells. The plate was incubated for 7h at 37° C., 5% CO2. […] The membrane was then fixed, stained in Gill's hematoxylin and wet mounted on slides. Migrated cells were counted on four representative fields per membrane and the average number plotted.
An animal trial was conducted to assess the effects of myostatin antagonist 300 in improving muscle function. Sixteen month old mice were divided into two groups of ten. While the control group received saline subcutaneous (SC) injections, the other group received myostatin antagonist 300 SC at 6 μg/gram of BW three times a week for six weeks. The functional improvement of sarcopenic muscle was assessed by measuring grip strength of mice at the end of trial. Grip strength was measured in Newtons.

Assay [3] has as its system myostatin. Kind of assay: C2C12 myoblast proliferation competition assay: wild type myostatin competed with antagonists. Format: cell-based. The note with it: antagonist 1, 5 and 10 μg/ml; myostatin 2.25 μg/ml. On the procedure: […] C2C12 myoblasts were grown in Dulbecco's modified eagle medium according to the standard techniques (Thomas et al, 2000). The myoblast proliferation assay was carried out in uncoated 96-well microtitre plates. C2C12 cultures were seeded at 1000 cells/well. Following a 16-hour attachment period, test media containing either recombinant wild type myostatin or different myostatin antagonists were added and cells were incubated for a further 48 or 72 hour period. For competition assay, wild type myostatin was competed with different concentrations of myostatin antagonists prior to the addition into the media. After the incubation period, proliferation was assessed using methylene blue photometric endpoint assay as previously described (Thomas et al, 2000).

Assay [4] concerns TA muscle burn in C56b1/6 mice. Kind of assay: In vivo muscle burn trial. On the procedure: C56b1/6 mice at ˜12 months of age were anesthetized and a red-hot metal rod (1.5 mm wide, 7 mm long) was applied to TA muscle for 5 sec. The mice were injected subcutaneously with saline or 300 myostatin antagonists at 6 μg/g of body weight at day 1, 3, 5, 7 and 10 after injury. The mice were allowed to heal for 5, 7, 14, 21, 28, 35 and 46 days, after which they were culled and the muscle processed for histology.
Histological muscle samples were covered in OCT and frozen in isopentane cooled in liquid nitrogen. The sections were cut in a cryostat at 10 μm thickness and stained with H&E and Van Gieson. Regeneration markers such as total number of centrally formed nuclei (CFN) and number of fibres with CNF were analysed for each day following the different treatments, and the values plotted.

Assay [5] has as its system p-FoxO1. Kind of assay: In vitro cancer cachexia trial: p-FoxO1 Western blot in C2C12 myotubes. The assay is classed as cell-based, murine. Particulars: with myostatin 6 μg/mL; tested at 30, 60, 90 or 120 μg/mL; 24 hours. On the procedure:
C2C12 cells were differentiated for 72 hours in differentiation media (DMEM+2% HS). Following this period of differentiation the myotubes were tested with recombinant myostatin at 6 μg/mL or a combination of both myostatin and 300 recombinant protein at 30, 60, 90 or 120 μg/mL for further 24 hours to determine if 300 can rescue myostatin-mediated muscle wasting in vitro. Gene expression changes of intermediate signalling molecules critical in myostatin-mediated cachexia were analysed. Therefore, protein was isolated from cells and Western blot analysis was performed to measure protein expression levels for p-FoxO1, which we have shown to be a critical signalling intermediates in Myostatin-mediated cachexia (McFarlane et al 2006).
In general terms: A western blot detects proteins with antibodies after separation by electrophoresis.

Assay [6] has as its system skin burn in C56b1/6 mice. The assay can be described thus: In vivo skin burn trial (hydroxyproline assay). The note with it: 6 μg/g SC day 1, 3, 5, 7 and 10, vs control. On the procedure: C56b1/6 mice at ˜12 months of age were anesthetized, the skin at the back of the neck was shaved, and a red-hot metal rod (1.5 mm wide, 7 mm long) was applied to the exposed skin of the mice for 5 sec. The mice were injected subcutaneously with either saline or 300 myostatin antagonist at 6 μg/g of body weight at day 1, 3, 5, 7 and 10 after injury. The mice were allowed to heal for 5, 7, 14, 21, 28, 35 and 46 days, after which they were culled and the skin frozen in liquid nitrogen for hydroxyproline analysis.
After a burn injury in skin a hydroxyproline assay was performed to determine the amount of collagen deposits on the wound area. Hydroxyproline is present in collagen, and gives it a stable helical conformation. Therefore, measuring the amount of hydroxyproline present in a given tissue will determine the amount of collagen present in the tissue.

Take “myostatin antagonist 300: recombinant peptide, amino acids 267-300 of bovine myostatin, with N terminal and C terminal tag (SEQ ID NO: 6) (DFGLDCDEHSTESRCCRYPLTVDFEAFGWDWIIA; cysteine pairing not given here; also: N- and C-terminal tags; listed as Homo sapiens)”: the “rescue of chemo-inhibiting effects of myostatin on myoblast migration” value in assay [1] (myoblasts from old (2 year old) mice, antagonist added at 5 μg/ml, myostatin 2.5 μg/ml) was “rescued to levels similar to those observed in the control”; in assay [1] (myoblasts from young (1 month old) mice), “rescued the migration of myostatin cells to control levels”. In addition, the “migration rates of myoblasts isolated from treated mice” value in assay [2] is given as “significantly increased migration rates”. The “rescue of the proliferation-inhibiting effects of myostatin on myoblasts” value in assay [3] was “rescued to levels similar to those observed in the positive control”. For the same substance, the “H&E staining of the muscle” value in assay [4] (21 days after burn injury) is reported as “darker stained fibres, many with centrally formed nuclei”. In assay [4] (D21 after injury), the “degree of fibrosis (van Gieson staining)” value was “higher degree of fibrosis in the control group”. The “number of fibres with centrally formed nuclei (CFN)” value in assay [4] (after muscle burn, compared to saline) is on record as “increased number”. In addition, the “percentage of damage muscle area, treatment vs control” value in assay [4] (from D28 onwards, data not shown) is recorded as “no difference”. Further, the “numbers of centrally formed nuclei (CFN)” value in assay [4] (muscle burn, by D21, maintained up to day 46, vs control) is on record as “significantly higher”. Also, in assay [5], the “concentration giving maximal rescue of p-FoxO1 expression” value turned out to be 90 µg/mL. The “collagen on the wound area (hydroxyproline assay)” value in assay [6] was “tendency towards lower level of collagen”.
